Test results from patent US9169254B2, “Spiroimidazolone derivative” (Chugai Seiyaku Kabushiki Kaisha, priority 2009, dated 2015).

Molecular target: T1, human PTH1 receptor (Homo sapiens, UniProt Q03431)
T1 sequence (Q03431 27-593): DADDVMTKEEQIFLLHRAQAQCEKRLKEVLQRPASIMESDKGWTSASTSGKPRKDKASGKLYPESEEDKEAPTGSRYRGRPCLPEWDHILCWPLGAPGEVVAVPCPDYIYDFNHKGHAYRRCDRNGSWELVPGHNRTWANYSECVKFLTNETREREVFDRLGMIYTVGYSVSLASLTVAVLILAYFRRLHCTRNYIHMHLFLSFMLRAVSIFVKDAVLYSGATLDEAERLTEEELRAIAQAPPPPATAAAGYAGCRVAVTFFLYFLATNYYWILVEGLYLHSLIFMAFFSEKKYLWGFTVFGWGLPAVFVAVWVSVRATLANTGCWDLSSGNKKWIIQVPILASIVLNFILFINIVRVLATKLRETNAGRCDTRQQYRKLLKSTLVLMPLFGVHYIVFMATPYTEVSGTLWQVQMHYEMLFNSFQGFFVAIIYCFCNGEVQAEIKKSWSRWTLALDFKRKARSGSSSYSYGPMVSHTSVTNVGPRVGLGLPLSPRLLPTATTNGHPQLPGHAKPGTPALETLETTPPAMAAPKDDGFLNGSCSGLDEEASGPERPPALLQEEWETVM
Experiment: In vitro cAMP signal activity in HKRK-B7 cells (LLC-PK1 cells overexpressing the human PTH1 receptor)
Assay type: cell-based
Conditions: 0.1 µM

Row | Compound | cAMP production activity (%)
1 | Cc1cc(N(C)C(N)=O)cc(C)c1/C=C/[S@TB3](=O)(=O)N1CCC2(CC1)N=C(c1cccc(C(F)(F)C(F)(F)C(F)(F)C(F)(F)F)c1)NC2=O [Compound 1112, 1-(3,5-dimethyl-4-{(E)-2-[2-(3-nonafluorobutyl-phenyl)-4-oxo-1,3,8-triaza-spiro[4.5]dec-1-ene-8-sulfonyl]-vinyl}-phenyl)-1-methyl-urea] | 76

Same assay, conditions: HKRK-B7 cells; compound at 1×10^−3 M; cAMP produced as percentage of that produced by hPTH(1-34) at 100 nM

Row | Compound | cAMP production activity (%)
2 | Cc1cc(C(=O)N2CCC(C)(O)CC2)cc(C)c1/C=C/[S@TB4](=O)(=O)N1CCC2(CC1)N=C(c1ccc(F)c(OC(F)(F)F)c1)NC2=O [Compound 1099, 2-(4-fluoro-3-trifluoromethoxy-phenyl)-8-{(E)-2-[4-(4-hydroxy-4-methyl-piperidine-1-carbonyl)-2,6-dimethyl-phenyl]-ethenesulfonyl}-1,3,8-triaza-spiro[4.5]dec-1-en-4-one] | 91
3 | Cc1cc(C(=O)N2CCC(C)(O)CC2)cc(C)c1/C=C/S(=O)(=O)N1CCC2(CC1)N=C(c1cccc(OC(F)(F)C(F)F)c1)NC2=O [Compound 1100, 8-{(E)-2-[4-(4-Hydroxy-4-methyl-piperidine-1-carbonyl)-2,6-dimethyl-phenyl]-ethenesulfonyl}-2-[3-(1,1,2,2-tetrafluoro-ethoxy)-phenyl]-1,3,8-triaza-spiro[4.5]dec-1-en-4-one] | 76
4 | Cc1cc(C(=O)N2CCC(O)CC2)cc(C)c1CC(F)(F)S(=O)(=O)N1CCC2(CC1)N=C(c1cccc(OC(F)(F)F)c1)NC2=O [Compound 1101, 8-{1,1-Difluoro-2-[4-(4-hydroxy-piperidine-1-carbonyl)-2,6-dimethyl-phenyl]-ethanesulfonyl}-2-(3-trifluoromethoxy-phenyl)-1,3,8-triaza-spiro[4.5]dec-1-en-4-one] | 110
5 | Cc1cc(C(=O)N2CC(O)C2)cc(C)c1/C=C/S(=O)(=O)N1CCC2(CC1)N=C(c1ccc(F)c(OC(F)(F)F)c1)NC2=O [Compound 1102, 2-(4-Fluoro-3-trifluoromethoxy-phenyl)-8-{(E)-2-[4-(3-hydroxy-azetidine-1-carbonyl)-2,6-dimethyl-phenyl]-ethenesulfonyl}-1,3,8-triaza-spiro[4.5]dec-1-en-4-one] | 10
6 | Cc1cc(OC[C@H](O)CO)cc(C)c1/C=C/S(=O)(=O)N1CCC2(CC1)N=C(c1cccc(OCCCC(F)(F)C(F)(F)F)c1)NC2=O [Compound 1103, 8-{(E)-2-[4-((R)-2,3-Dihydroxy-propoxy)-2,6-dimethyl-phenyl]-ethenesulfonyl}-2-[3-(4,4,5,5,5-pentafluoro-pentyloxy)-phenyl]-1,3,8-triaza-spiro[4.5]dec-1-en-4-one] | 5.4
7 | CC1CCC(C2=NC3(CN(S(=O)(=O)CCc4cccc5ccccc45)C3)C(=O)N2)CC1 (centres unmarked) [Compound 1104, 6-(4-Methyl-cyclohexyl)-2-(2-naphthalen-1-yl-ethanesulfonyl)-2,5,7-triaza-spiro[3.4]oct-5-en-8-one] | 16
8 | CNc1cc(C)c(/C=C/[S@TB3](=O)(=O)N2CCC3(CC2)N=C(CCCCCCCCCCCNC(=O)OC(C)(C)C)NC3=O)c(C)c1 [Compound 1106, (11-{8-[(E)-2-(2,6-dimethyl-4-methylamino-phenyl)-ethenesulfonyl]-4-oxo-1,3,8-triaza-spiro[4.5]dec-1-en-2-yl}-undecyl)-carbamic acid tert-butyl ester] | 58
9 | CNc1cc(C)c(/C=C/[S@TB3](=O)(=O)N2CCC3(CC2)N=C(CCCCCCCCCO)NC3=O)c(C)c1 [Compound 1107, 8-[(E)-2-(2,6-dimethyl-4-methylamino-phenyl)-ethenesulfonyl]-2-(9-hydroxy-nonyl)-1,3,8-triaza-spiro[4.5]dec-1-en-4-one] | 24
10 | CCC[C@@H]1CCC[C@H](C2=NC3(CCN(S(=O)(=O)/C=C/c4c(C)cc(N(C)C(N)=O)cc4C)CC3)C(=O)N2)C1 [Compound 1108, 1-(3,5-Dimethyl-4-{(E)-2-[4-oxo-2-((1S,3R)-3-propyl-cyclohexyl)-1,3,8-triaza-spiro[4.5]dec-1-ene-8-sulfonyl]-vinyl}-phenyl)-1-methyl-urea] | 99
11 | Cc1cc(N(C)C(N)=O)cc(C)c1/C=C/[S@TB4](=O)(=O)N1CCC2(CC1)N=C(CCCCCCCCCCCCCC(=O)O)NC2=O [Compound 1109, 14-(8-{(E)-2-[2,6-dimethyl-4-(1-methyl-ureido)-phenyl]-ethenesulfonyl}-4-oxo-1,3,8-triaza-spiro[4.5]dec-1-en-2-yl)-tetradecanoic acid] | 29
12 | [2H]C([2H])([2H])C1([2H])CCC(C2=NC3(CCN([S@TB18](=O)(=O)/C=C/c4c(C)cc(N(C)C(N)=O)cc4C)CC3)C(=O)N2)CC1 (centres unmarked) [Compound 1110, 1-(3,5-dimethyl-4-{(E)-2-[2-(4-[1,1,1-^2H3]methyl-[4-^2H1]cyclohexyl)-4-oxo-1,3,8-triaza-spiro[4.5]dec-1-ene-8-sulfonyl]-vinyl}-phenyl)-1-methyl-urea] | 92
13 | Cc1cc(N(C)C(N)=O)cc(C)c1/C=C/[S@TB3](=O)(=O)N1CCC2(CC1)N=C(c1ccc(F)c(OC(F)(F)F)c1)NC2=O [Compound 1111, 1-(4-{(E)-2-[2-(4-fluoro-3-trifluoromethoxy-phenyl)-4-oxo-1,3,8-triaza-spiro[4.5]dec-1-ene-8-sulfonyl]-vinyl}-3,5-dimethyl-phenyl)-1-methyl-urea] | 79
14 | Cc1cc(N(C)C(N)=O)cc(C)c1/C=C/[S@TB3](=O)(=O)N1CCC2(CC1)N=C(c1ccc(Cl)c(C(F)(F)F)c1)NC2=O [Compound 1113, 1-(4-{(E)-2-[2-(4-chloro-3-trifluoromethyl-phenyl)-4-oxo-1,3,8-triaza-spiro[4.5]dec-1-ene-8-sulfonyl]-vinyl}-3,5-dimethyl-phenyl)-1-methyl-urea] | 99
15 | CCCc1ccc(-c2cccc(C3=NC4(CCN(S(=O)(=O)/C=C/c5c(C)cc(N(C)C(N)=O)cc5C)CC4)C(=O)N3)c2)cc1 [Compound 1114, 1-(3,5-Dimethyl-4-{(E)-2-[4-oxo-2-(4′-propyl-biphenyl-3-yl)-1,3,8-triaza-spiro[4.5]dec-1-ene-8-sulfonyl]-vinyl}-phenyl)-1-methyl-urea] | 95
16 | CCOCCCCCCC1=NC2(CCN([S@TB18](=O)(=O)/C=C/c3c(C)cc(N(C)C(N)=O)cc3C)CC2)C(=O)N1 [Compound 1115, 1-(4-{(E)-2-[2-(6-ethoxy-hexyl)-4-oxo-1,3,8-triaza-spiro[4.5]dec-1-ene-8-sulfonyl]-vinyl}-3,5-dimethyl-phenyl)-1-methyl-urea] | 140
17 | Cc1cc(N(C)C(N)=O)cc(C)c1/C=C/[S@TB3](=O)(=O)N1CCC2(CC1)N=C(c1cccc(CCCCCC(F)(F)F)c1)NC2=O [Compound 1116, 1-[3,5-dimethyl-4-((E)-2-{4-oxo-2-[3-(6,6,6-trifluoro-hexyl)-phenyl]-1,3,8-triaza-spiro[4.5]dec-1-ene-8-sulfonyl}-vinyl)-phenyl]-1-methyl-urea] | 106
